# From EPA's ToxRefDB 2
# Experiments:
# mouse [1] = conditions: Carcinogenicity, cd1, Oral, Feed, dose end: 105 week, group: systemic
# rabbit = conditions: Prenatal developmental toxicity study, new zealand white, Oral, Gavage/Intubation, dose end: 18 GD
# rat [2] = conditions: Subchronic oral toxicity in rodents, sprague dawley, Feed, dose end: 90 day, group: systemic, systemic / in life observation / body weight / body weight gain + systemic / pathology microscopic / liver / hypertrophy + systemic / …
# rat [3] = conditions: Prenatal developmental toxicity study, sprague dawley, Oral, Gavage/Intubation, dose end: 17 GD
# rat [4] = conditions: Combined chronic toxicity/carcinogenicity; sprague dawley; Oral; Feed; dose end: 104 week; group: systemic; systemic / in life observation / body weight / body weight + systemic / in life observation / body weight / body weight gain + systemic / …
# dog [5] = conditions: Subchronic oral toxicity in nonrodent, beagle, Capsule, dose end: 14 week, group: systemic
# mouse [6] = conditions: Prenatal developmental toxicity study, other, Oral, Gavage/Intubation, dose end: 15 GD
# rat [7] = conditions: Subchronic oral toxicity in rodents, sprague dawley, Gavage/Intubation, dose end: 14 week, group: systemic
# rat [8] = conditions: Multigenerational reproductive toxicity study, sprague dawley, Oral, Feed, dose end: 2 generation
# dog [9] = conditions: Chronic toxicity, beagle, Oral, Capsule, dose end: 52 week, group: systemic
# [10] = systemic / in life observation / mortality / mortality
# [11] = group: developmental, developmental / developmental malformation / bone / incomplete ossification + developmental / developmental malformation / lung / abnormal …
# [12] = group: maternal, reproductive / reproductive performance / resorptions / resorptions + systemic / in life observation / body weight / body weight gain + …
# [13] = group: developmental, systemic / in life observation / body weight / fetal weight
# [14] = group: maternal, systemic / in life observation / body weight / body weight gain + systemic / in life observation / food consumption / food consumption
# [15] = group: maternal, systemic / in life observation / body weight / body weight gain + systemic / in life observation / food consumption / food consumption + …
# [16] = systemic / hematology / anemia / anemia - nos + systemic / hematology / erythrocyte (rbc) count differential / erythrocyte (rbc) + systemic…
# [17] = systemic / in life observation / clinical signs / alopecia
# [18] = systemic / pathology microscopic / kidney / calculus + systemic / pathology microscopic / kidney / hyperplasia + systemic / pathology …
# [19] = group: offspring, systemic / in life observation / body weight / offspring (pup) weight
# [20] = group: parental, systemic / in life observation / body weight / body weight gain + systemic / in life observation / food consumption / food consumption
# [21] = group: parental, systemic / in life observation / food consumption / food consumption
# [22] = systemic / organ weight / liver / absolute + systemic / organ weight / liver / relative to body weight + systemic / pathology microscopic / …
# [23] = systemic / pathology microscopic / gallbladder / discolored + systemic / pathology microscopic / gallbladder / vacuolization cytoplasmic
compound,measurement,setting,value
c1ccc2[nH]c(-c3cscn3)nc2c1 [Thiabendazole],LOAEL,mouse [1]; systemic / in life observation / body weight / body weight gain,92 mg/kg/day
same,LEL,mouse [1]; [10],6.95 mg/kg/day
same,NEL,mouse [1]; [10],< 6.95 mg/kg/day
same,NOAEL,mouse [1]; systemic / in life observation / mortality / mortality + systemic / in life observation / body weight / body weight gain + systemic / organ …,36.5 mg/kg/day
same,LEL,rabbit; [11],600 mg/kg/day
same,LOAEL,rabbit; [11],600 mg/kg/day
same,NEL,rabbit; [11],150 mg/kg/day
same,NOAEL,rabbit; [11],150 mg/kg/day
same,LEL,rabbit; [12],600 mg/kg/day
same,LOAEL,rabbit; [12],600 mg/kg/day
same,NEL,rabbit; [12],150 mg/kg/day
same,NOAEL,rabbit; [12],150 mg/kg/day
same,LEL,rat [2],37 mg/kg/day
same,LOAEL,rat [2],37 mg/kg/day
same,NEL,rat [2],9.4 mg/kg/day
same,NOAEL,rat [2],9.4 mg/kg/day
same,LEL,rat [3]; [13],40 mg/kg/day
same,LOAEL,rat [3]; [13],40 mg/kg/day
same,NEL,rat [3]; [13],10 mg/kg/day
same,NOAEL,rat [3]; [13],10 mg/kg/day
same,LEL,rat [3]; [14],40 mg/kg/day
same,LOAEL,rat [3]; [14],40 mg/kg/day
same,NEL,rat [3]; [15],10 mg/kg/day
same,NOAEL,rat [3]; [15],10 mg/kg/day
same,LEL,rat [4],30.1 mg/kg/day
same,LOAEL,rat [4],30.1 mg/kg/day
same,NEL,rat [4],10.1 mg/kg/day
same,NOAEL,rat [4],10.1 mg/kg/day
same,LOAEL,dog [5]; [16],> 150 mg/kg/day
same,NEL,dog [5]; [16],35 mg/kg/day
same,NOAEL,dog [5]; [16],≥ 150 mg/kg/day
same,LEL,dog [5]; systemic / in life observation / clinical signs / emesis + systemic / pathology microscopic / gallbladder / vacuolization cytoplasmic,75 mg/kg/day
same,LEL,mouse [6]; [13],100 mg/kg/day
same,LOAEL,mouse [6]; [13],100 mg/kg/day
same,NEL,mouse [6]; [13],25 mg/kg/day
same,NOAEL,mouse [6]; [13],25 mg/kg/day
same,LEL,mouse [6]; [14],100 mg/kg/day
same,LOAEL,mouse [6]; [14],100 mg/kg/day
same,NEL,mouse [6]; [14],25 mg/kg/day
same,NOAEL,mouse [6]; [14],25 mg/kg/day
same,LEL,rat [7]; [17],25 mg/kg/day
same,NEL,rat [7]; [17],< 25 mg/kg/day
same,LOAEL,rat [7]; [18],100 mg/kg/day
same,NOAEL,rat [7]; [18],25 mg/kg/day
same,LEL,rat [8]; [19],90 mg/kg/day
same,LOAEL,rat [8]; [19],90 mg/kg/day
same,NEL,rat [8]; [19],30 mg/kg/day
same,NOAEL,rat [8]; [19],30 mg/kg/day
same,LOAEL,rat [8]; [20],30 mg/kg/day
same,NOAEL,rat [8]; [20],10 mg/kg/day
same,LEL,rat [8]; [21],10 mg/kg/day
same,NEL,rat [8]; [21],< 10 mg/kg/day
same,LOAEL,dog [9]; [22],40 mg/kg/day
same,NOAEL,dog [9]; [22],10 mg/kg/day
same,LEL,dog [9]; [23],10 mg/kg/day
same,NEL,dog [9]; [23],< 10 mg/kg/day
